Data published in EP0934259B1, “BETA-SULFONAMIDO HYDROXAMIC ACIDS AS MATRIX METALLOPROTEINASE AND TACE INHIBITORS” (American Cyanamid Company, priority 1996, dated 1998).

How the values were obtained:
Type in all cases: biochemical
MMP-1 = target: T1, MMP-1 (Homo sapiens, UniProt P03956); assay: MMP-1 inhibition (thiopeptide or fluorescent peptide substrate assay)
T1 sequence (P03956 100-469): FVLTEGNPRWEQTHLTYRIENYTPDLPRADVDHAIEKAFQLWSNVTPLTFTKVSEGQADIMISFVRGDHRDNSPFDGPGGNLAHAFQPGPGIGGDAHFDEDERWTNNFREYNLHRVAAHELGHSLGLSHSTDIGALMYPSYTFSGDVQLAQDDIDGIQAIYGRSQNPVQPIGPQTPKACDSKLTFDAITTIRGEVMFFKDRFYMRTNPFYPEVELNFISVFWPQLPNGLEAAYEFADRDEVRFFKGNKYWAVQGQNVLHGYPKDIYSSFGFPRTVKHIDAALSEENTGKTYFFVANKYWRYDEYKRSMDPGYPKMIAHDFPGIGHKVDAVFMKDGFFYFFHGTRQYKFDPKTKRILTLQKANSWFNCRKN
Experimental: (§1) These assays are based on the cleavage of a thiopeptide substrates such as Ac-Pro-Leu-Gly(2-mercapto-4-methyl-pentanoyl)-Leu-Gly-OEt by the matrix metalloproteinases MMP-1, MMP-13 (collagenases) or MMP-9 (gelatinase), which results in the release of a substrate product that reacts colorimetrically with DTNB (5,5'-dithiobis(2-nitro-benzoic acid)). The enzyme activity is measured by the rate of the color increase. The thiopeptide substrate is made up fresh as a 20 mM stock in 100% DMSO and the DTNB is dissolved in 100% DMSO as a 100 mM stock and stored in the dark at room temperature. […] The assay buffer, enzyme, vehicle or inhibitor, and DTNB/substrate are added in this order to a 96 well plate (total reaction volume of 200 µl) and the increase in color is monitored spectrophotometrically for 5 minutes at 405 nm on a plate reader and the increase in color over time is plotted as a linear line.
(§2) Alternatively, a fluorescent peptide substrate is used. […] Upon cleavage of the substrate by an MMP, the fluorescence that is generated is quantitated on the fluorescence plate reader. […] The reaction is read (excitation 340 nm, emission 444 nm) for 10 min, and the increase in fluorescence over time is plotted as a linear line.
(§3) For either the thiopeptide or fluorescent peptide assays, the slope of the line is calculated and represents the reaction rate. […]

MMP-9 = MMP-9 (Homo sapiens, UniProt P14780); assay: MMP-9 inhibition (thiopeptide or fluorescent peptide substrate assay)
MMP-9, sequence (P14780 94-707): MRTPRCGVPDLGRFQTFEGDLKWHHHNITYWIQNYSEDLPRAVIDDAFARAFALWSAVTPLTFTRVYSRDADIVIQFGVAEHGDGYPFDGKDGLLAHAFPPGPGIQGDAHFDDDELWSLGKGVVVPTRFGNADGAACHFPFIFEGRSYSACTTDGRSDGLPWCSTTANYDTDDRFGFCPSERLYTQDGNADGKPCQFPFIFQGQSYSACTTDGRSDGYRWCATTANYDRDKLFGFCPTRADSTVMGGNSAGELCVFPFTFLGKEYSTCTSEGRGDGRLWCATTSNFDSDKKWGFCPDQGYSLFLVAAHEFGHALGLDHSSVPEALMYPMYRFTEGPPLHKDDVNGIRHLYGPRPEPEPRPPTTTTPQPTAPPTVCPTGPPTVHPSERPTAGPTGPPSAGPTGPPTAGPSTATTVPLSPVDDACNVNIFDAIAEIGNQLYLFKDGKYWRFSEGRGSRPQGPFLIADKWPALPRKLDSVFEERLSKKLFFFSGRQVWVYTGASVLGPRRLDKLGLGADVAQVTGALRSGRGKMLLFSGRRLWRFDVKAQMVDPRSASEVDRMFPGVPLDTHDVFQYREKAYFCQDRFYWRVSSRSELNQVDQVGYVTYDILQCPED
Experimental: as §1, §2, §3

TACE = target: T2, TACE (Homo sapiens, UniProt P78536); assay: TACE inhibition (fluorescent peptidyl substrate assay)
T2 construct: purchased Immunex
T2 sequence (P78536 215-824): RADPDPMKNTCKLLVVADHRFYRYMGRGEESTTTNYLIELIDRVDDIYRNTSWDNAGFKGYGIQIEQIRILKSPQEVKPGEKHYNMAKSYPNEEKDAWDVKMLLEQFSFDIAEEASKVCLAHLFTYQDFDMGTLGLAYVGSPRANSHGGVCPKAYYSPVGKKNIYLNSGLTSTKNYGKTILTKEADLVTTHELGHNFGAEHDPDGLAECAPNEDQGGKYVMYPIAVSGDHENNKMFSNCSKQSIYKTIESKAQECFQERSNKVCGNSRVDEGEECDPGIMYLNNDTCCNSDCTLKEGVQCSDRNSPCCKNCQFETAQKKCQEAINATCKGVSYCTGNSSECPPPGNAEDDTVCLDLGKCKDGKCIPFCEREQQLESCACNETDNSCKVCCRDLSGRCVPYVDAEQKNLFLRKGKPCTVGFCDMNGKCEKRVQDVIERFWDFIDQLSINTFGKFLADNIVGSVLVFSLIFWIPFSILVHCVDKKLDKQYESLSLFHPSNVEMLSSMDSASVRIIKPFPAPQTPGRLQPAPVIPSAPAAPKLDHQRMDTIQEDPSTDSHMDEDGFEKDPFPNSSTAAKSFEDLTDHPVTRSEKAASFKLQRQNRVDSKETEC
Experimental: Using 96-well black microtiter plates, each well receives a solution composed of 10 µL TACE (Immunex, final concentration 1µg/mL), 70µL Tris buffer, pH 7.4 containing 10% glycerol (final concentration 10 mM), and 10 µL of test compound solution in DMSO (final concentration 1µM, DMSO concentration <1%) and incubated for 10 minutes at room temperature. The reaction is initiated by addition of a fluorescent peptidyl substrate (final concentration 100 µM) to each well and then shaking on a shaker for 5 sec.
The reaction is read (excitation 340 nm, emission 420 nm) for 10 min. and the increase in fluorescence over time is plotted as a linear line. The slope of the line is calculated and represents the reaction rate.
The linearity of the reaction rate is confirmed (r^2 >0.85). The mean (x±sem) of the control rate is calculated and compared for statistical significance (p<0.05) with drug-treated rates using Dunnett's multiple comparison test. Dose-response relationships can be generate using multiple doses of drug and IC50 values with 95% CI are estimated using linear regression.

Compound | IC50 (MMP-1) | IC50 (MMP-9) | IC50 (TACE) | inhibition at 1 µM (TACE; read-out: TACE % inhibition at 1 µM concentration)
COc1ccc(S(=O)(=O)N(Cc2ccccc2)[C@@H]2CCCC[C@H]2C(=O)NO)cc1 (relative stereo) [Example 9, (trans)-2-[Benzyl-(4-methoxy-benzenesulfonyl)-amino]-cyclohexanecarboxylic acid hydroxyamide] | 176 nM | 181 nM | 1610 nM | –
COc1ccc(S(=O)(=O)N(Cc2ccccc2)[C@H]2CCCC[C@H]2C(=O)NO)cc1 (relative stereo) [Example 10, (cis)-2-[Benzyl-(4-methoxy-benzenesulfonyl)-amino]-cyclohexanecarboxylic acid hydroxyamide] | 616 nM | 275 nM | – | 24%
